Source: patent EP0042553B1, “Antitumor compositions” (Bristol-Myers Company, priority 1980, dated 1981)
Structures can show the parent of a compound that is named as a salt.

Assays:
[1] = Stability / clarity of reconstituted aqueous solution; type: physicochemical
Protocol: Stability: 15 mg salt was reconstituted with 10 ml sterile water.
The product salt may be reconstituted with water to give a 5-7.5 mg/ml solution which remains clear at 17°C for at least 6 hours.
(§1) The above mixture can be rapidly (<3 min.) reconstituted with sterile water. The 50 mg/ml solution and 1, 2, 5 and 10 mg/ml dilutions remain clear for at least 24 hours at 15-20°C.
(§2) The above mixture is made according to the general procedure of Example 5.

Solubility in water = type: physicochemical
[2] = Reconstitution time with water; type: physicochemical; conditions: 5, 7.5 and 10 mg/ml; at 24°C (75°F)
Protocol: Reconstituted aqueous solutions of 5, 7.5 and 10 mg/ml were readily obtained with 3 minutes shaking at 24°C (75°F). Solubility of the salt in water at room temperature is at least 15 mg/ml.
as §1, §2

[3] = Compatibility with ions in aqueous solution; type: physicochemical; conditions: insoluble precipitates form
Protocol: The solid compositions (all three types) provided according to the present invention are reconstituted with sterile water or sterile aqueous vehicle. The preferred unit dosage forms described above may, for example, be reconstituted with one milliliter of sterile water or sterile aqueous vehicle to form relatively concentrated m-AMSA solutions or such solutions may be diluted to form more dilute (e.g. 5 mg/ml m-AMSA activity) solutions. […] Reconstitution, therefore, should be effected with vehicles substantially free of the above-mentioned ions.
Caution: Solutions of m-AMSA are incompatible with chloride, sulfate, phosphate and carbonate ions. Precipitates form.

[4] = prior art statement; cited from earlier work
animal tumor systems = conditions: Cain, et al., Europ. J. Cancer 10:539-549 (1974); cited from earlier work

SMILES: COc1cc(NS(C)(=O)=O)ccc1Nc1c2ccccc2nc2ccccc12 [Preparation 4, Crystalline L(+)-Monolactate hemiacetonate of m-AMSA]
- activity loss ([1]; 15 mg salt in 10 ml sterile water, after 2 weeks storage at 45°C): < 6%
- Stability: time the solution was stable ([1]; 15 mg salt reconstituted with 10 ml sterile water): at least 24 hours

SMILES: COc1cc(NS(C)(=O)=O)ccc1Nc1c2ccccc2nc2ccccc12 [Preparation 6, Crystalline DL-Monolactate acetone solvate of m-AMSA]
- solubility (Solubility in water; at room temperature): ≥ 15 mg/mL
- time solution remains clear ([1]; 5-7.5 mg/ml solution in water at 17°C): at least 6 hours
- shaking time to obtain reconstituted aqueous solutions [2]: 3 min

SMILES: COc1cc(NS(C)(=O)=O)ccc1Nc1c2ccccc2nc2ccccc12 [Preparation 9, Crystalline m-AMSA monogluconate salt]
- solubility (Solubility in water; at 50-60°C): 30 mg/mL

SMILES: COc1cc(NS(C)(=O)=O)ccc1Nc1c2ccccc2nc2ccccc12 [m-AMSA, 4'-(9-acridinylamino)-methanesulfon-m-anisidide]
- compatibility in aqueous solution with chloride, sulfate, phosphate and carbonate ions [3]: incompatible
- solubility in water (in words) [4]: very limited
- antitumor activity (animal tumor systems): significant antitumor activity

SMILES: COc1cc(NS(C)(=O)=O)ccc1Nc1c2ccccc2nc2ccccc12.Cl [monohydrochloride]
- solubility in water (in words) [4]: insufficiently water-soluble

SMILES: COc1cc(NS(C)(=O)=O)ccc1Nc1c2ccccc2nc2ccccc12.CS(=O)(=O)O [monomethanesulfonate]
- solubility in water (in words) [4]: insufficiently water-soluble
